Among the data in patent publication US20250188040A1, “PHARMACEUTICAL COMPOSITIONS COMPRISING WRN HELICASE INHIBITORS” (Vividion Therapeutics, Inc., priority 2022, published 2025) are GI50 and IC50 values, retold here.

Like-named read-outs stand apart in the source and are kept apart here.

The test system of test [1] is HCT 116 cells. As to the kind of experiment: Cell growth assay (CellTiter-Glo 2.0), HCT 116 MSI-H cell line. As to conditions: Homo sapiens, HCT-116, 120 h, read-out: Cell Growth Inhibition GI50 HCT-116.
Test [2] relates to SW480 cells. As to the kind of experiment: Cell growth assay (CellTiter-Glo 2.0), SW480 MSS cell line. As to conditions: Homo sapiens, SW480, 120 h, read-out: Cell Growth Inhibition GI50 SW480. (ATP-based viability assays read luminescence as a measure of living cells.)
The target in test [3] is T1, WRN C727 (Homo sapiens, UniProt Q14191).
T1 construct: endogenous in cells; host or cells: OCI-AML2
T1 sequence (Q14191 whole entry): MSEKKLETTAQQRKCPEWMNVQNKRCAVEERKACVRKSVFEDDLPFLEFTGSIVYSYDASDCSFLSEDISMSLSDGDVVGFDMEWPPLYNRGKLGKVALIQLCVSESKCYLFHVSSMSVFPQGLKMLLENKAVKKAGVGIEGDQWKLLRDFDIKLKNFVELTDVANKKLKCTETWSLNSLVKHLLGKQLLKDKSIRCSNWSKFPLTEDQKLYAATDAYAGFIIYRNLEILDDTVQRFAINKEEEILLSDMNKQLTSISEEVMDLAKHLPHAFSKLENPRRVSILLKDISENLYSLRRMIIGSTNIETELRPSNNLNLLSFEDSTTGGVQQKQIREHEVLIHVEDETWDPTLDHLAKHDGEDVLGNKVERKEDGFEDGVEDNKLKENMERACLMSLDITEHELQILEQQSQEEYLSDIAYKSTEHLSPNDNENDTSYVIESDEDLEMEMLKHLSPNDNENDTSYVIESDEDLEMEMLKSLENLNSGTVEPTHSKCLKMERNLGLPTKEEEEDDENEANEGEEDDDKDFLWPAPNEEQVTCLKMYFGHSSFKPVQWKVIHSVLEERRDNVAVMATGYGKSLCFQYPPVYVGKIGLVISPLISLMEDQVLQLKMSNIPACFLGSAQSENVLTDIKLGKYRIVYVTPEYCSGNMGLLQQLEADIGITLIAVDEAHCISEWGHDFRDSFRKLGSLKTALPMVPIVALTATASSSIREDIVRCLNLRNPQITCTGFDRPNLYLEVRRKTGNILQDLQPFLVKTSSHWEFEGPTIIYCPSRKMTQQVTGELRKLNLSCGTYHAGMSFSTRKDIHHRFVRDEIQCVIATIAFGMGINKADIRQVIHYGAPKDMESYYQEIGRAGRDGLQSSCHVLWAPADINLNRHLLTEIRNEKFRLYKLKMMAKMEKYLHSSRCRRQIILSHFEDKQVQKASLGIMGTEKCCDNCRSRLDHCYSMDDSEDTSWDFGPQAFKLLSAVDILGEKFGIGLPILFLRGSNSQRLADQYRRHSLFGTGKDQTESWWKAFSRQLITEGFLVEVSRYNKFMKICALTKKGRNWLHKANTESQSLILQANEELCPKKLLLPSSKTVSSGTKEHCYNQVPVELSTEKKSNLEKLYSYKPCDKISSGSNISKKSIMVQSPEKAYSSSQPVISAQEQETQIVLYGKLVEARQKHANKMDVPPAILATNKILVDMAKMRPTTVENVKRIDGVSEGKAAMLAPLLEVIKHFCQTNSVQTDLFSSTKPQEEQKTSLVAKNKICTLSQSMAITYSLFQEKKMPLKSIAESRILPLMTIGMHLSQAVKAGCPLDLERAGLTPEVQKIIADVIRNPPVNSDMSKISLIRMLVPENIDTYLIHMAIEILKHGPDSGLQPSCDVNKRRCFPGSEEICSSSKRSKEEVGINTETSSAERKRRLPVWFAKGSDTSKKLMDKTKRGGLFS
As to the kind of experiment: Target engagement, in vitro (lysate), OCI-AML2. The test is classed as binding. As to conditions: read-out: OCI-AML2 WRN C727 TE50 in vitro (lysate). The gist of the method:
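OCI-AML2 intact cells or lysates dosed with compound, then a cysteine-reactive probe; after trypsin digestion, probe-labelled peptides were streptavidin-enriched and quantified by nano-LC parallel reaction monitoring MS. Engagement (%) relative to DMSO controls.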

Test [4] deals with T1, WRN C727. Description: Target engagement, in situ (cell), OCI-AML2. The test is classed as cell-based. As to conditions: OCI-AML2 cells, read-out: OCI-AML2 WRN C727 TE50 in situ (cell). Here is the method:
Cells or cell lysates were treated with a dose response of compound followed by probe treatment, which labels solvent exposed cysteines. Proteins were enzymatically digested with trypsin and probe-labelled peptides were enriched with streptavidin. Isolated peptides were then separated using reversed-phase liquid chromatography on a C18 column (Dionex Ultimated 3000 nano-LC, Thermo). Peptides were analyzed by parallel reaction monitoring mass spectrometry (Exploris 120, Thermo).
Target engagement (%) is calculated relative to DMSO treated control samples.

For test [5], the target named is hWRN(519-1227)_C-H3CV-GFP-10His (Homo sapiens, UniProt Q14191). As to the kind of experiment: Helicase Assay for WRN Inhibition (ATP-dependent, fluorescence based).
Chain of hWRN(519-1227)_C-H3CV-GFP-10His (Q14191 519-1227): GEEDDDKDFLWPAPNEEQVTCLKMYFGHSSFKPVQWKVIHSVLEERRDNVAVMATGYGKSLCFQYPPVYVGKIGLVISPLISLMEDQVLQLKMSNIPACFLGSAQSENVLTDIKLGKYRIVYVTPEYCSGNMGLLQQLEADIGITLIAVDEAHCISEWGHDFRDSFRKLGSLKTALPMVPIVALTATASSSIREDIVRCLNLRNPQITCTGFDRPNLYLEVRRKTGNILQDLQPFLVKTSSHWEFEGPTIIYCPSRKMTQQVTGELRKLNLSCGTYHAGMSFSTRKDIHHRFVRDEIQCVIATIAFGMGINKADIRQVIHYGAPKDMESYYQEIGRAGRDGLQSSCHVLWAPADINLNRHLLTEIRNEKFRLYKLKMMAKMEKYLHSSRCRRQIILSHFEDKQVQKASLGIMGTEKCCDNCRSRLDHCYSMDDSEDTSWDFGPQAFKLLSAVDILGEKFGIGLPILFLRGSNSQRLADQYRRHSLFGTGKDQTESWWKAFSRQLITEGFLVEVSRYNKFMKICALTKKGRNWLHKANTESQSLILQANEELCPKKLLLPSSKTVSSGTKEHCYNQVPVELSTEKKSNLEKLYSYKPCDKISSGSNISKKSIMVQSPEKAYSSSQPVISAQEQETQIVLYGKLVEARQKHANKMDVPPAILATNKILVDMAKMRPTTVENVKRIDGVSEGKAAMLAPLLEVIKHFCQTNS
[6] abbreviates: WRN Helicase IC50, 30 min preincubation with ATP, 30 min reaction.

By GI50 is commonly meant the concentration at which growth is held to half of that of the control. Turning to `COCC(/C=C/S(C)(=O)=O)NC(=O)c1cnc(C(F)(F)C2CC2)nc1Oc1ccccc1` (stereo in doubt) [Example 226, (S,E)-2-(cyclopropyldifluoromethyl)-N-(1-methoxy-4-(methylsulfonyl)but-3-en-2-yl)-4-phenoxypyrimidine-5-carboxamide], the GI50 in test [1] was found to be 0.023 µM; in test [2], 27.9 µM. The IC50 was found to be 0.116 µM in test [3], 0.016 µM in test [4] and 0.0929 µM in test [5] (setting [6]).

Turning to `CC[C@@H](/C=C/S(C)(=O)=O)NC(=O)c1cnc(C2CCCC2)nc1Oc1ccccc1` [Example 6, (S,E)-2-cyclopentyl-N-(1-(methylsulfonyl)pent-1-en-3-yl)-4-phenoxypyrimidine-5-carboxamide], the GI50 stood at 0.214 µM in test [1] and 11.8 µM in test [2]. Moreover, the IC50 in test [3] turned out to be 5 µM; in test [4] it was 0.2 µM; in test [5] (setting [6]) it was 0.439 µM.

Turning to `C[C@@H](/C=C/S(C)(=O)=O)NC(=O)c1cnc(-c2ccccc2)nc1Oc1ccccc1` [Example 80, (S,E)-N-(4-(methylsulfonyl)but-3-en-2-yl)-4-phenoxy-2-phenylpyrimidine-5-carboxamide], the IC50 was greater than 100 µM in test [3], 20.4 µM in test [4] and 148 µM in test [5] (setting [6]).

For `CCc1cccc(Oc2nc(C3CCCC3)ncc2C(=O)N[C@@H](C)/C=C/S(C)(=O)=O)c1` [Example 108, (S,E)-2-cyclopentyl-4-(3-ethylphenoxy)-N-(4-(methylsulfonyl)but-3-en-2-yl)pyrimidine-5-carboxamide], the results for the IC50 in test [3], in test [4] and in test [5] (setting [6]) were greater than 100 µM, 50 µM and 87 µM, respectively.

As for `C[C@@H](/C=C/S(C)(=O)=O)NC(=O)c1cnc(C2CCCC2)nc1Oc1cc(F)cc(Cl)c1` [Example 122, (S,E)-4-(3-chloro-5-fluorophenoxy)-2-cyclopentyl-N-(4-(methylsulfonyl)but-3-en-2-yl)pyrimidine-5-carboxamide], the IC50 in test [3] was greater than 100 µM; in test [4], 8.07 µM; in test [5] (setting [6]), 22 µM.

In the case of `C[C@@H](/C=C/S(C)(=O)=O)NC(=O)c1cnc(C2CCCC2)nc1Oc1cc(Cl)cc(Cl)c1` [Example 123, (S,E)-2-cyclopentyl-4-(3,5-dichlorophenoxy)-N-(4-(methylsulfonyl)but-3-en-2-yl)pyrimidine-5-carboxamide], the IC50 in test [3] was greater than 100 µM; in test [4], 20 µM; in test [5] (setting [6]), 29 µM.

Turning to `C[C@@H](/C=C/S(C)(=O)=O)NC(=O)c1cnc(C2CCCC2)nc1Oc1cccc2ccccc12` [Example 139, (S,E)-2-cyclopentyl-N-(4-(methylsulfonyl)but-3-en-2-yl)-4-(naphthalen-1-yloxy)pyrimidine-5-carboxamide], the IC50 in test [3] was greater than 100 µM; in test [4], greater than 100 µM; in test [5] (setting [6]) it was 192 µM.

Turning to `CS(=O)(=O)/C=C/CNC(=O)c1cnc(N2CCCC2)nc1Oc1ccccc1` [Example 167, (E)-N-(3-(methylsulfonyl)allyl)-4-phenoxy-2-(pyrrolidin-1-yl)pyrimidine-5-carboxamide], the IC50 in test [3] was greater than 100 µM; in test [4] it was 7.08 µM; in test [5] (setting [6]) it was 15.6 µM.

On to `CS(=O)(=O)C=C1CN(C(=O)c2cnc(C3CC3)nc2Oc2ccccc2)C1` [Example 188, (2-cyclopropyl-4-phenoxypyrimidin-5-yl)(3-((methylsulfonyl)methylene)azetidin-1-yl)methanone], for which the GI50 in test [1] is 0.391 µM; in test [2], greater than 15.2 µM. The figures for the IC50 in test [4] and in test [5] were 0.49 µM and 1.1 µM, respectively.

Regarding `C[C@@H](/C=C/S(C)(=O)=O)NC(=O)c1cnc(C(C)(C)C)cc1Oc1ccccc1` [Example 253, (S,E)-6-(tert-butyl)-N-(4-(methylsulfonyl)but-3-en-2-yl)-4-phenoxynicotinamide], the GI50 in test [1] was 0.24 µM; in test [2], greater than 10 µM. The IC50 was found to be 0.2 µM in test [4] and 0.94 µM in test [5] (setting [6]).

As to `C[C@@H](/C=C/S(C)(=O)=O)NC(=O)c1c(N)nc(C2CCCC2)nc1Oc1ccccc1` [Example 255, (S,E)-4-amino-2-cyclopentyl-N-(4-(methylsulfonyl)but-3-en-2-yl)-6-phenoxypyrimidine-5-carboxamide], the GI50 in test [1] was 0.329 µM; in test [2], greater than 12.7 µM. For the same compound, the IC50 was 3.77 µM in test [3] and 1.14 µM in test [5] (setting [6]).

Regarding `C[C@@H](/C=C/S(C)(=O)=O)NC(=O)c1cnc(CC(F)(F)F)nc1Oc1ccccc1` [Example 260, (S,E)-N-(4-(methylsulfonyl)but-3-en-2-yl)-4-phenoxy-2-(2,2,2-trifluoroethyl)pyrimidine-5-carboxamide], the GI50 in test [1] is 1.8 µM; in test [2] it was 41 µM. Besides, the IC50 in test [3] is greater than 100 µM; in test [5] (setting [6]) it was 8.2 µM.

For `CS(=O)(=O)/C=C/[C@@H](NC(=O)c1cnc(CC(F)(F)F)nc1Oc1ccccc1)C1CC1` [Example 261, (S,E)-N-(1-cyclopropyl-3-(methylsulfonyl)allyl)-4-phenoxy-2-(2,2,2-trifluoroethyl)pyrimidine-5-carboxamide], the GI50 came out at 0.35 µM in test [1] and 38 µM in test [2]. Besides, the IC50 in test [3] was 1.79 µM; in test [5] (setting [6]), 0.88 µM.

`C=C(C#N)CNC(=O)c1cnc(C2CCCC2)nc1Oc1ccccc1` [Example 268, N-(2-cyanoallyl)-2-cyclopentyl-4-phenoxypyrimidine-5-carboxamide]: the GI50 stood at 2.1 µM in test [1] and 14 µM in test [2]. Also, the IC50 in test [3] is 23.3 µM; in test [5] (setting [6]), 1.7 µM.

Turning to `C=C(C#N)CNC(=O)c1cnc(C2CC2)nc1Oc1ccccc1` [Example 269, N-(2-cyanoallyl)-2-cyclopropyl-4-phenoxypyrimidine-5-carboxamide], the figures for the GI50 in test [1] and in test [2] were 3.3 µM and 17.9 µM, respectively. The values for the IC50 in test [3] and in test [5] were 25 µM and 6.1 µM, respectively.

With `C=C(C#N)CNC(=O)c1cnc(C(C)(C)C)nc1Oc1ccccc1` [Example 270, 2-(tert-butyl)-N-(2-cyanoallyl)-4-phenoxypyrimidine-5-carboxamide], the figures for the GI50 in test [1] and in test [2] were 0.51 µM and 11 µM, respectively. The IC50 amounted to 8.53 µM in test [3] and 0.91 µM in test [5] (setting [6]).

On to `C=C(C#N)CNC(=O)c1cnc(C(C)(F)F)nc1Oc1ccccc1` [Example 271, N-(2-cyanoallyl)-2-(1,1-difluoroethyl)-4-phenoxypyrimidine-5-carboxamide], for which the GI50 in test [1] amounted to 0.397 µM; in test [2], 12 µM. In addition, the values for the IC50 in test [3] and in test [5] (setting [6]) were 17.4 µM and 0.986 µM, respectively.

As for `CCOc1cc(C2CCCC2)ccc1C(=O)NC/C=C/S(C)(=O)=O` [Example 280, (E)-4-cyclopentyl-2-ethoxy-N-(3-(methylsulfonyl)allyl)benzamide], the IC50 in test [3] was determined as 8.49 µM; in test [4], 21.3 µM; in test [5] (setting [6]) it was 62 µM.

With `C[C@@H](/C=C/S(C)(=O)=O)NC(=O)c1ccc(C2CCCC2)cc1Oc1ccccc1` [Example 286, (S,E)-4-cyclopentyl-N-(4-(methylsulfonyl)but-3-en-2-yl)-2-phenoxybenzamide], the GI50 was 0.6 µM in test [1] and greater than 10 µM in test [2]. The figures for the IC50 in test [3] and in test [5] (setting [6]) were 3.58 µM and 1.4 µM, respectively.
